From publication PMC12251549, “Engineering a Radiohybrid PSMA Ligand with an Albumin-Binding Moiety and Pharmacokinetic Modulation via an Albumin-Binding Competitor for Radiotheranostics” (Molecules, 2025)

Columns and labels:
[1] = tested on: PSMA-expressing LNCaP cells; test: Cellular uptake and internalization in LNCaP cells, blocking with 2-PMPA; format: cell-based
Description: Cellular uptake experiments were performed according to a previous report with slight modifications. LNCaP cells expressing PSMA were cultured in RPMI 1640 medium containing 10% fetal bovine serum (FBS) and 1% penicillin–streptomycin on 6-well culture plates (containing 5 × 10^5 cells/well) for 24 h in a humidified atmosphere (5% CO2) incubator at 37 °C. After removing the medium and washing with phosphate-buffered saline (PBS) (−) once, a mixed solution of [^125I]5 and [^211At]6, [^125I]5 and [^67Ga]Ga-PSMA-617, and [^125I]5 and [^67Ga]5 in 1.0 mL of medium without FBS was added (3.7 kBq/each tracer/well). The final concentrations of the radioligands for [^125I]5, [^211At]6, and [^67Ga]5 were 45.5 pM, 0.2 pM, and 2.5 pM, respectively. These solutions containing radioligands were diluted in saline containing 0.05% (w/v) bovine serum albumin (BSA) to prevent adsorption to tubes or plates and further diluted with medium to 0.00125% as the final BSA concentration. After incubation for 10, 60, and 120 min, the medium from each well was removed, and the cells were washed twice with ice-cold PBS (−); the surface of the cells was washed twice with ice-cold 0.2 M glycine buffer (pH 3.0). The cells were lysed using a 1 M NaOH aqueous solution. The radioactivity of ^67Ga,^125I and ^211At in the 1 M NaOH aqueous solution was determined and defined as the internalized radioligand fraction using an auto well gamma counter (ARC-8001, Hitachi, Ltd., Tokyo, Japan) according to a previous paper. The radioactivity was determined with an auto well gamma counter and corrected for background radiation and physical decay during counting. A window from 16 to 69 keV was used for counting ^125I, and a window from 70 to 120 keV was used for counting ^211At. Correlation factors to eliminate any crossover of ^125I activity in the ^211At counts were determined by measuring the ^125I standard in each window. More than one week after the experiments, the radioactivity counts of ^125I were measured after the decay of ^211At. The protein amount in cells was quantified using a BCA Protein Assay Kit (Nacalai Tesque, Kyoto, Japan) according to the manufacturer’s protocol. All data were expressed as percent dose per milligram protein (%dose/mg protein). In blocking experiments, a selective inhibitor of the PSMA, (2S)-2-(phosphonomethyl)pentanedioic acid (2-PMPA) (final concentration 100 µM), was added to each well with tracers. After incubation for 10, 60, and 120 min, radioactivity and protein concentration were determined in the same manner as the experiment without the blocking agent.

[2] = In vitro stability test in 0.1 M phosphate buffer; format: physicochemical; conditions: 0.1 M PB solution containing 10% ethanol, 37 °C, 24 h, mean ± SD for three samples
Description: samples were analyzed by RP-HPLC using a Cosmosil 5C18-AR-II (4.6 × 150 mm) at a flow rate of 1 mL/min with a gradient mobile phase of 60% methanol in water with 0.1% trifluoroacetic acid (TFA) to 80% methanol in water with 0.1% TFA for 20 min.
In vitro stability test in 0.1 M PB solution containing 10% ethanol was performed. The […]
and 97.1 ± 0.9% (mean ± SD for three samples) after incubating at 37 °C for 24 h, […]

[3] = Biodistribution after intravenous co-injection of [125I]5 and [67Ga]Ga-PSMA-617 (Table S1); format: in vivo, normal mice (ddY); conditions: normal mice; for Biodistribution of radioactivity: Blood / Biodistribution of radioactivity: Bone / Biodistribution of radioactivity: Brain / Biodistribution of radioactivity: Heart / Biodistribution of radioactivity: Kidney / Biodistribution of radioactivity: L. Intestine / Biodistribution of radioactivity: Liver / Biodistribution of radioactivity: Lung / Biodistribution of radioactivity: Muscle / Biodistribution of radioactivity: Neck / Biodistribution of radioactivity: Pancreas / Biodistribution of radioactivity: S. Intestine / Biodistribution of radioactivity: Spleen / Biodistribution of radioactivity: Stomach: i.v.
Description: [^67Ga]Ga-PSMA-617 (37 kBq) and [^125I]5 (37 kBq) or [^125I]5 (37 kBq) and [^211At]6 (37 kBq) were intravenously co-administered into three or four normal mice at each timepoint (6 weeks male ddY mice, 28–30 g, Japan SLC, Inc., Hamamatsu, Japan). Mice were sacrificed at 10 min, 1 h, 4 h, and 24 h ([^67Ga]Ga-PSMA-617 and [^125I]5) or at 10 min, 1 h, 4 h, 12 h, and 24 h ([^125I]5 and [^211At]6) postinjection of the radiolabeled compounds. Tissues of interest were removed and weighed, and the radioactivity of ^67Ga and ^125I and ^125I and ^211At were determined with an auto well gamma counter (ARC-8001) and corrected for background radiation as described in the Cellular Uptake Experiments Section. To determine the amount and routes of the radioactivity excreted from the body for 24 h after the injection of radiolabeled compounds, mice were housed in metabolic cages (METABOLICA, SUGIYAMA-GEN Co., Ltd., Tokyo, Japan). Data are shown as the percentage of injected dose per gram of tissues (%ID/g) or %ID.

O=C([O-])CN1CCN(CC(=O)[O-])CCN(CC(=O)NC(CCCCNC(=O)CCCc2ccc(I)cc2)C(=O)NCC2CCC(C(=O)NC(Cc3ccc4ccccc4c3)C(=O)NCCCCC(NC(=O)NC(CCC(=O)O)C(=O)O)C(=O)O)CC2)CCN(CC(=O)[O-])CC1.[67Ga+3] (centres unmarked) [[^67Ga]5]
Effect of excess 2-PMPA on cellular uptake ([1]; 2-PMPA 100 µM): significantly reduced | Radiochemical purity after incubation (in vitro stability) [2]: 93.1 ± 0.9%

O=C([O-])CN1CCN(CC(=O)[O-])CCN(CC(=O)NCC2CCC(C(=O)NC(Cc3ccc4ccccc4c3)C(=O)NCCCCC(NC(=O)NC(CCC(=O)O)C(=O)O)C(=O)O)CC2)CCN(CC(=O)[O-])CC1.[67Ga+3] (centres unmarked) [[^67Ga]Ga-PSMA-617, reference compound]
Cellular uptake and internalization levels compared with [125I]5 and [211At]6 [1]: lower | Clearance from organs ([3]; 1 h postinjection): rapid clearance from most organs except the kidney | Excretion in feces ([3]; 24 h postinjection): 2.4 ± 0.3 %ID | Excretion in urine ([3]; 24 h postinjection): 58.0 ± 2.6 %ID | Biodistribution of radioactivity: Blood ([3]; 10 min after injection): 3.40 (0.42) % injected dose per gram | Biodistribution of radioactivity: Bone ([3]; 10 min after injection): 1.02 (0.23) % injected dose per gram | Biodistribution of radioactivity: Brain ([3]; 10 min after injection): 0.11 (0.02) % injected dose per gram | Biodistribution of radioactivity: Heart ([3]; 10 min after injection): 1.22 (0.11) % injected dose per gram | Biodistribution of radioactivity: Kidney ([3]; 10 min after injection): 69.46 (8.76) % injected dose per gram | Biodistribution of radioactivity: L. Intestine ([3]; 10 min after injection): 0.58 (0.07) % injected dose per gram | Biodistribution of radioactivity: Liver ([3]; 10 min after injection): 0.74 (0.10) % injected dose per gram | Biodistribution of radioactivity: Lung ([3]; 10 min after injection): 2.60 (0.40) % injected dose per gram | Biodistribution of radioactivity: Muscle ([3]; 10 min after injection): 0.75 (0.08) % injected dose per gram | Biodistribution of radioactivity: Neck ([3]; 10 min after injection): 0.02 (0.01) % injected dose | Biodistribution of radioactivity: Pancreas ([3]; 10 min after injection): 1.03 (0.18) % injected dose per gram | Biodistribution of radioactivity: S. Intestine ([3]; 10 min after injection): 0.75 (0.03) % injected dose per gram | Biodistribution of radioactivity: Spleen ([3]; 10 min after injection): 0.96 (0.09) % injected dose per gram | Biodistribution of radioactivity: Stomach ([3]; 10 min after injection): 0.38 (0.02) % injected dose | Biodistribution of radioactivity: Blood ([3]; 1 h after injection): 0.29 (0.04) % injected dose per gram | Biodistribution of radioactivity: Bone ([3]; 1 h after injection): 0.18 (0.04) % injected dose per gram | Biodistribution of radioactivity: Brain ([3]; 1 h after injection): 0.02 (0.00) % injected dose per gram | Biodistribution of radioactivity: Heart ([3]; 1 h after injection): 0.11 (0.00) % injected dose per gram | Biodistribution of radioactivity: Kidney ([3]; 1 h after injection): 16.32 (3.17) % injected dose per gram | Biodistribution of radioactivity: L. Intestine ([3]; 1 h after injection): 0.07 (0.01) % injected dose per gram | Biodistribution of radioactivity: Liver ([3]; 1 h after injection): 0.18 (0.07) % injected dose per gram | Biodistribution of radioactivity: Lung ([3]; 1 h after injection): 0.28 (0.03) % injected dose per gram | Biodistribution of radioactivity: Muscle ([3]; 1 h after injection): 0.09 (0.00) % injected dose per gram | Biodistribution of radioactivity: Neck ([3]; 1 h after injection): 0.00 (0.00) % injected dose | Biodistribution of radioactivity: Pancreas ([3]; 1 h after injection): 0.14 (0.03) % injected dose per gram | Biodistribution of radioactivity: S. Intestine ([3]; 1 h after injection): 0.16 (0.02) % injected dose per gram | Biodistribution of radioactivity: Spleen ([3]; 1 h after injection): 0.14 (0.01) % injected dose per gram | Biodistribution of radioactivity: Stomach ([3]; 1 h after injection): 0.07 (0.02) % injected dose | Biodistribution of radioactivity: Blood ([3]; 4 h after injection): 0.07 (0.01) % injected dose per gram | Biodistribution of radioactivity: Bone ([3]; 4 h after injection): 0.14 (0.05) % injected dose per gram | Biodistribution of radioactivity: Brain ([3]; 4 h after injection): 0.01 (0.00) % injected dose per gram | Biodistribution of radioactivity: Heart ([3]; 4 h after injection): 0.04 (0.02) % injected dose per gram | Biodistribution of radioactivity: Kidney ([3]; 4 h after injection): 1.54 (0.08) % injected dose per gram | Biodistribution of radioactivity: L. Intestine ([3]; 4 h after injection): 0.59 (0.79) % injected dose per gram | Biodistribution of radioactivity: Liver ([3]; 4 h after injection): 0.08 (0.01) % injected dose per gram | Biodistribution of radioactivity: Lung ([3]; 4 h after injection): 0.06 (0.01) % injected dose per gram | Biodistribution of radioactivity: Muscle ([3]; 4 h after injection): 0.02 (0.01) % injected dose per gram | Biodistribution of radioactivity: Neck ([3]; 4 h after injection): 0.00 (0.00) % injected dose | Biodistribution of radioactivity: Pancreas ([3]; 4 h after injection): 0.04 (0.02) % injected dose per gram | Biodistribution of radioactivity: S. Intestine ([3]; 4 h after injection): 0.22 (0.17) % injected dose per gram | Biodistribution of radioactivity: Spleen ([3]; 4 h after injection): 0.05 (0.01) % injected dose per gram | Biodistribution of radioactivity: Stomach ([3]; 4 h after injection): 0.07 (0.04) % injected dose | Biodistribution of radioactivity: Blood ([3]; 24 h after injection): 0.01 (0.00) % injected dose per gram | Biodistribution of radioactivity: Bone ([3]; 24 h after injection): 0.16 (0.04) % injected dose per gram | Biodistribution of radioactivity: Brain ([3]; 24 h after injection): 0.00 (0.00) % injected dose per gram | Biodistribution of radioactivity: Heart ([3]; 24 h after injection): 0.01 (0.01) % injected dose per gram | Biodistribution of radioactivity: Kidney ([3]; 24 h after injection): 0.29 (0.06) % injected dose per gram | Biodistribution of radioactivity: L. Intestine ([3]; 24 h after injection): 0.15 (0.11) % injected dose per gram | Biodistribution of radioactivity: Liver ([3]; 24 h after injection): 0.04 (0.01) % injected dose per gram | Biodistribution of radioactivity: Lung ([3]; 24 h after injection): 0.02 (0.01) % injected dose per gram | Biodistribution of radioactivity: Muscle ([3]; 24 h after injection): 0.01 (0.00) % injected dose per gram | Biodistribution of radioactivity: Neck ([3]; 24 h after injection): 0.00 (0.00) % injected dose | Biodistribution of radioactivity: Pancreas ([3]; 24 h after injection): 0.02 (0.01) % injected dose per gram | Biodistribution of radioactivity: S. Intestine ([3]; 24 h after injection): 0.04 (0.03) % injected dose per gram | Biodistribution of radioactivity: Spleen ([3]; 24 h after injection): 0.03 (0.01) % injected dose per gram | Biodistribution of radioactivity: Stomach ([3]; 24 h after injection): 0.05 (0.04) % injected dose
